Data on 20 compounds can be found in patent US20260345574A1, “POTENT AND SELECTIVE IRREVERSIBLE INHIBITORS OF IRAK1” (Dana-Farber Cancer Institute, Inc., priority 2022, published 2026).

In assay [1] the target is IRAK1 (Homo sapiens, UniProt P51617). The assay can be described thus: Adapta Universal Kinase Assay (ThermoFisher) against IRAK1. The class given is biochemical. Conditions: Histone H3 (1-20) peptide substrate, 60 minutes at room temperature. Here is the method: To measure the IC50 values of the compounds herein against IRAK1, the Adapta Universal Kinase Assay (ThermoFisher) was used. Briefly, 100 nL of different concentrations of the compounds in 100% DMSO were added to each well of a 384-well plate (Corning Cat. #4512). 2.4 μL of 30 mM HEPES, 2.5 μL of 4× ATP solution (in water), and 5 μL of 2× IRAK1/Histone H3 (1-20) peptide mixture (prepared in 50 mM HEPES pH 7.5, 0.01% BRIJ-35, 10 mM MgCl2, 1 mM EGTA) were added to each well. The plate was shaken for 30 seconds and centrifuged for 1 minute at 1000×g. The plate was then incubated at room temperature for 60 minutes. 5 μL of Detection Mix was added to each well. The plate was shaken for 30 seconds and centrifuged for 1 minute at 1000×g. The plate was then incubated at room temperature for 60 minutes. The plate was subsequently read on a fluorescence plate reader, and the emissions ratio was calculated to determine the ratio of ATP to ADP. Emissions Ratio=AF647 Emission (665 nm)/Europium Emission (615 nm).

The target in assay [2] is T1, IRAK4 (Homo sapiens, UniProt Q9NWZ3).
T1 sequence (Q9NWZ3 1-460): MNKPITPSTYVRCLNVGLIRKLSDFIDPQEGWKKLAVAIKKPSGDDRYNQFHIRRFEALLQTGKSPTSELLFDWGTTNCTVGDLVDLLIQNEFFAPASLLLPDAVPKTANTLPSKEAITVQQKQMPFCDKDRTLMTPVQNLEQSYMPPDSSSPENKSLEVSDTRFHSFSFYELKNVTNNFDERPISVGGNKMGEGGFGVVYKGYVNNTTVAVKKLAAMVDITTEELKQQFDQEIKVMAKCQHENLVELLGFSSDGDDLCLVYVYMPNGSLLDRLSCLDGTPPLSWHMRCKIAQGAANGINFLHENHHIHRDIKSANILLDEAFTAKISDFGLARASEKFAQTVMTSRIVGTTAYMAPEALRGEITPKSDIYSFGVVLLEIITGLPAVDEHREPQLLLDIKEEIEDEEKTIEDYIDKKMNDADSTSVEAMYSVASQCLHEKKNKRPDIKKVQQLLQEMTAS
The assay can be described thus: Z'-LYTE assay (ThermoFisher) against IRAK4. The class given is biochemical. Conditions: Ser/Thr 07 substrate, 60 minutes at room temperature. Here is the method: To measure the IC50 values of compounds herein against IRAK4, a Z′-LYTE assay (ThermoFisher) was used. Briefly, 2.5 μL of different concentrations of the compounds in 1% DMSO were added to 2.4 μL kinase buffer (50 mM HEPES pH 7.5, 0.01% BRIJ-35, 10 mM MgCl2, 1 mM EGTA) in each well of a 384-well plate (Corning Cat. #3676). 5 μL of 2× IRAK4/Ser/Thr 07 mixture (prepared in 50 mM HEPES pH 7.5, 0.01% BRIJ-35, 10 mM MnCl2, 2 mM DTT, and 0.02% NaN3) and 2.5 μL of 4× ATP solution (4× ATP, 50 mM HEPES, pH 7.5, 0.01% BRIJ-35, 10 mM MgCl2, 1 mM EGTA) were added to each well. The plate was shaken for 30 seconds, and then incubated at room temperature for 60 minutes. 5 μL of a 1:100000 dilution of Development Reagent A was added to each well. The plate was shaken for 30 seconds and incubated for 60 minutes at room temperature. The plate was subsequently read on a fluorescence plate reader, and the emissions ratio was calculated to determine the ratio of Ser/Thr 07 phosphorylated by the reaction. Emissions Ratio=Coumarin Emission (443 nm)/Flourescein Emission (520 nm).

The IC50 is the concentration needed to halve the response being measured.

Sequence of IRAK1 (P51617 whole entry): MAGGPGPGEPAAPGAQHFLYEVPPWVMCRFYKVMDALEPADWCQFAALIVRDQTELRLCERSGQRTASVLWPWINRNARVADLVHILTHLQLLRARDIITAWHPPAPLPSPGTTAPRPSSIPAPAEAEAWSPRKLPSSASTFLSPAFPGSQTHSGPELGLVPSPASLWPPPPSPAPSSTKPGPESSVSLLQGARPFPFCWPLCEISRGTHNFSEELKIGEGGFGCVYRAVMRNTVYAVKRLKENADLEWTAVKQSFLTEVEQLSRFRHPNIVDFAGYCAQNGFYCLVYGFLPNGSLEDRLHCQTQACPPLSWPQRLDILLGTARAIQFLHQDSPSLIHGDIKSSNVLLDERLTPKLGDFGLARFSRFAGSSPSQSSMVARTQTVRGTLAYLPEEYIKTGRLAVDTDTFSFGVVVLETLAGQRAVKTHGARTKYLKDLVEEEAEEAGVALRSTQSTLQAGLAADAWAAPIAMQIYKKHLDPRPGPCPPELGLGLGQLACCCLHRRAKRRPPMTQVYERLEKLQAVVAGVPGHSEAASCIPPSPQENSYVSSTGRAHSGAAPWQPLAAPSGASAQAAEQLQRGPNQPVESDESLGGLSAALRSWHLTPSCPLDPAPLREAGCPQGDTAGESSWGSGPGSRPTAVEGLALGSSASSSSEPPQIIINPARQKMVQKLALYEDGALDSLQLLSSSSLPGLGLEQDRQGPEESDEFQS

In the case of `C=CC(=O)N1CCC[C@H](c2nc(-c3ccc(NC(=O)c4cccc(-c5[nH]ncc5C)n4)nc3)no2)C1` [Compound 006, (S)-N-(5-(5-(1-acryloylpiperidin-3-yl)-1,2,4-oxadiazol-3-yl)pyridin-2-yl)-6-(4-methyl-1H-pyrazol-5-yl)picolinamide], the IC50 in assay [1] is 8.21 nM; in assay [2] it was more than 10000 nM.

Consider `C=CC(=O)N1CCC[C@H](c2nc(-c3ccc(NC(=O)c4cccc(-c5[nH]ncc5C)n4)c(F)c3)no2)C1` [Compound 088, (S)-N-(4-(5-(1-acryloylpiperidin-3-yl)-1,2,4-oxadiazol-3-yl)-2-fluorophenyl)-6-(4-methyl-1H-pyrazol-5-yl)picolinamide], for which the figures for the IC50 in assay [1] and in assay [2] were 12.7 nM and more than 10000 nM, respectively.

For the compound `C=CC(=O)N1CCC[C@H](c2nc(-c3ccc(NC(=O)c4cccc(-c5ccn[nH]5)n4)nc3)no2)C1` [Compound 001, (S)-N-(5-(5-(1-acryloylpiperidin-3-yl)-1,2,4-oxadiazol-3-yl)pyridin-2-yl)-6-(1H-pyrazol-5-yl)picolinamide], the IC50 in assay [1] is 19.8 nM; in assay [2], more than 10000 nM.

On to `C=CC(=O)N1CCC[C@H](c2nc(-c3ccc(NC(=O)c4cccc(-c5ccn[nH]5)n4)cc3)no2)C1` [Compound 075], for which the IC50 in assay [1] was 36.6 nM; in assay [2] it was more than 10000 nM.

Consider `C=CC(=O)N1CCC[C@H](C(=O)Nc2ccc(Nc3n[nH]c4ccc(-c5ccn[nH]5)nc34)cc2)C1` [Compound 026], for which the IC50 was 6.86 nM in assay [1] and 365 nM in assay [2].

With `C=CC(=O)N1CCC[C@H](C(=O)Nc2ccc(-c3cnc(-c4cccc(-c5ccn[nH]5)n4)[nH]3)cc2)C1` [Compound 070, (S)-N-(4-(2-(6-(1H-pyrazol-5-yl)pyridin-2-yl)-1H-imidazol-5-yl)phenyl)-1-acryloylpiperidine-3-carboxamide], the figures for the IC50 in assay [1] and in assay [2] were 1200 nM and 3330 nM, respectively.

As for `C=CC(=O)N1CCC[C@H](C(=O)Nc2ccc(NC(=O)c3csc(-c4ccn[nH]4)n3)cc2)C1` [Compound 071, (S)-N-(4-(1-acryloylpiperidine-3-carboxamido)phenyl)-2-(1H-pyrazol-5-yl)thiazole-4-carboxamide], the figures for the IC50 in assay [1] and in assay [2] were 609 nM and 8220 nM, respectively.

With `C=CC(=O)N1CCC[C@H](C(=O)Nc2ccc(NC(=O)c3csc(-c4ccn[nH]4)n3)nc2)C1` [Compound 068, (S)-N-(5-(1-acryloylpiperidine-3-carboxamido)pyridin-2-yl)-2-(1H-pyrazol-5-yl)thiazole-4-carboxamide], the IC50 in assay [1] amounted to 324 nM; in assay [2], 5760 nM.

With `C=CC(=O)N1CC(c2nc(-c3ccc(NC(=O)c4cccc(-c5[nH]ncc5C)n4)nc3)no2)CC(F)(F)C1` (stereo not shown) [Compound 007, N-(5-(5-(1-acryloyl-5,5-difluoropiperidin-3-yl)-1,2,4-oxadiazol-3-yl)pyridin-2-yl)-6-(4-methyl-1H-pyrazol-5-yl)picolinamide], the IC50 is 3.98 nM in assay [1] and more than 10000 nM in assay [2].

On to `C=CC(=O)N1CCC[C@H](c2nc(-c3ccc(NC(=O)c4cccc(-c5ccn[nH]5)n4)c(Cl)c3)no2)C1` [Compound 079, (S)-N-(4-(5-(1-acryloylpiperidin-3-yl)-1,2,4-oxadiazol-3-yl)-2-chlorophenyl)-6-(1H-pyrazol-5-yl)picolinamide], for which the IC50 in assay [1] is 4.46 nM; in assay [2] it was 978 nM.

Regarding `C=CC(=O)N1CCC[C@H](c2nc(-c3ccc(NC(=O)c4cccc(-c5[nH]ncc5Cl)n4)cc3)no2)C1` [Compound 086, (S)-N-(4-(5-(1-acryloylpiperidin-3-yl)-1,2,4-oxadiazol-3-yl)phenyl)-6-(4-chloro-1H-pyrazol-5-yl)picolinamide], the IC50 in assay [1] was 9.16 nM; in assay [2], more than 10000 nM.

Consider `C=CC(=O)N1CCC[C@H](c2nc(-c3ccc(NC(=O)c4cccc(-c5cc(C#N)n(C)c5)n4)cc3)no2)C1` [Compound 087], for which the results for the IC50 in assay [1] and in assay [2] were 5720 nM and more than 10000 nM, respectively.

With `C=CC(=O)N1CCC[C@H](c2nc(-c3ccc(NC(=O)c4cccc(-c5[nH]ncc5C)n4)cc3)no2)C1` [Compound 085, (S)-N-(4-(5-(1-acryloylpiperidin-3-yl)-1,2,4-oxadiazol-3-yl)phenyl)-6-(4-methyl-1H-pyrazol-5-yl)picolinamide], the IC50 in assay [1] was 6.82 nM; in assay [2], 8750 nM.

As to `C=CC(=O)N1C[C@@H](c2nc(-c3ccc(NC(=O)c4cccc(-c5ccn[nH]5)n4)nc3)no2)CC(F)(F)C1` [Compound 063], the IC50 in assay [1] is 14.8 nM; in assay [2], more than 10000 nM.

As to `C=CC(=O)N1CCC[C@H](c2nc(-c3ccc(NC(=O)c4cccc(-c5ccn[nH]5)n4)c(F)c3)no2)C1` [Compound 076, (S)-N-(4-(5-(1-acryloylpiperidin-3-yl)-1,2,4-oxadiazol-3-yl)-2-fluorophenyl)-6-(1H-pyrazol-5-yl)picolinamide], the IC50 in assay [1] was 16.4 nM; in assay [2], more than 10000 nM.

Take `C=CC(=O)N1CCC[C@H](C(=O)Nc2ccc(-c3nc(-c4cccc(-c5ccn[nH]5)n4)no3)nc2)C1` [Compound 020]: the IC50 in assay [1] is 2.6 nM; in assay [2], 333 nM.

As to `C=CC(=O)N1CC(c2nc(-c3ccc(NC(=O)c4cccc(-c5[nH]ncc5Cl)n4)c(F)c3)no2)CC(F)(F)C1` (stereo not shown) [Compound 092, N-(4-(5-(1-acryloyl-5,5-difluoropiperidin-3-yl)-1,2,4-oxadiazol-3-yl)-2-fluorophenyl)-6-(4-chloro-1H-pyrazol-5-yl)picolinamide], the figures for the IC50 in assay [1] and in assay [2] were 9.93 nM and more than 10000 nM, respectively.

`C=CC(=O)N1CCC[C@H](c2nnc(-c3ccc(NC(=O)c4cccc(-c5ccn[nH]5)n4)nc3)o2)C1` [Compound 005, (S)-N-(5-(5-(1-acryloylpiperidin-3-yl)-1,3,4-oxadiazol-2-yl)pyridin-2-yl)-6-(1H-pyrazol-5-yl)picolinamide]: the IC50 in assay [1] was 96.1 nM; in assay [2], 9340 nM.

In the case of `C=CC(=O)N1C[C@@H](c2nc(-c3ccc(NC(=O)c4cccc(-c5ccn[nH]5)n4)nc3)no2)C[C@@H](C(F)(F)F)C1` [Compound 062], the figures for the IC50 in assay [1] and in assay [2] were 94.2 nM and more than 10000 nM, respectively.

For the compound `C=CC(=O)N1CCC[C@H](c2nc(-c3ccc(NC(=O)c4cccc(-c5ccnn5CC5(C(F)(F)F)CC5)n4)nc3)no2)C1` [Compound 017, (S)-N-(5-(5-(1-acryloylpiperidin-3-yl)-1,2,4-oxadiazol-3-yl)pyridin-2-yl)-6-(1-((1-(trifluoromethyl)cyclopropyl)methyl)-1H-pyrazol-5-yl)picolinamide], the IC50 in assay [1] and in assay [2] was more than 10000 nM throughout.
